One experiment relates to cotton. Put plainly: Preemergent control of plant species. It counts as in vivo, Gossypium spp. To be noted: Gossypium hirsutum, pre-emergence, 336 h; 0.25 lb/acre; read-out: percent preemergent control. The procedure, abridged:
(§1)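 Preemergent application of aqueous emulsions at rates given in the table, uniformly over seeded greenhouse soil. Untreated (water) beds as comparison; rating after 2 weeks as reduction in growth.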

The next experiment deals with rape. Description: Preemergent control of plant species. It counts as in vivo, Brassica napus. To be noted: Brassica napus, pre-emergence, 336 h; 0.25 lb/acre; read-out: percent preemergent control. The gist of the method: as §1
In another experiment the test system is soybean. Put plainly: Preemergent control of plant species. It counts as in vivo, Glycine max. To be noted: Glycine max, pre-emergence, 336 h; 0.25 lb/acre; read-out: percent preemergent control. The gist of the method: as §1
The next experiment deals with sugar beet. Put plainly: Preemergent control of plant species. Particulars: Beta vulgaris, pre-emergence, 336 h; 0.25 lb/acre; read-out: percent preemergent control. It counts as in vivo, Beta saccharifera. The procedure, abridged:
as §1

The next experiment deals with jimsonweed. Description: Preemergent control of plant species. To be noted: Datura stramonium, pre-emergence, 336 h; 0.25 lb/acre; read-out: percent preemergent control. In kind it is in vivo, Datura stramonium. The procedure, abridged:
as §1

The subject of another experiment is annual morning glory. Description: Preemergent control of plant species. It counts as in vivo, Ipomoea spp. Particulars: Ipomoea, pre-emergence, 336 h; 0.25 lb/acre; read-out: percent preemergent control. The procedure, abridged: as §1
The test system of the next experiment is velvetleaf. Put plainly: Preemergent control of plant species. In kind it is in vivo, Abutilon theophrasti. Particulars: Abutilon theophrasti, pre-emergence, 336 h; 0.25 lb/acre; read-out: percent preemergent control. The gist of the method:
as §1

A further experiment deals with corn. Put plainly: Preemergent control of plant species. In kind it is in vivo, Zea mays. To be noted: Zea mays, pre-emergence, 336 h; 0.25 lb/acre; read-out: percent preemergent control. The gist of the method:
as §1

Another experiment deals with rice. Put plainly: Preemergent control of plant species. Particulars: Oryza sativa, pre-emergence, 336 h; 0.25 lb/acre; read-out: percent preemergent control. In kind it is in vivo, Oryza sativa. The gist of the method: as §1
A further experiment concerns wheat. Description: Preemergent control of plant species. In kind it is in vivo, Triticum aestivum. Particulars: Triticum aestivum, pre-emergence, 336 h; 0.25 lb/acre; read-out: percent preemergent control. The procedure, abridged:
as §1

The next experiment has as its system barnyardgrass. Put plainly: Preemergent control of plant species. It counts as in vivo, Echinochloa crusgalli. To be noted: Echinochloa crus-galli, pre-emergence, 336 h; 0.25 lb/acre; read-out: percent preemergent control. The gist of the method:
as §1

The next experiment relates to johnson grass. Put plainly: Preemergent control of plant species. In kind it is in vivo, Sorghum halepense. Particulars: Sorghum halepense, pre-emergence, 336 h; 0.25 lb/acre; read-out: percent preemergent control. The gist of the method:
as §1

Another experiment concerns wild oats. Description: Preemergent control of plant species. Particulars: Avena fatua, pre-emergence, 336 h; 0.25 lb/acre; read-out: percent preemergent control. In kind it is in vivo. As to the method: The seeds of various species of plants were planted in beds of good agricultural soil in a greenhouse. A number of compositions of the present invention, generally in the nature of an aqueous emulsion, were applied at rates listed in the table so as to deposit a predetermined amount of active ingredients uniformly throughout the surface of the bed. Another seed bed was treated only with water to serve as a control. After treatment the seed beds were maintained for two weeks under greenhouse conditions conducive for good plant growth and watered as necessary. Control refers to the reduction in growth compared to the observed results of the same untreated species.

The subject of the next experiment is yellow foxtail. Description: Preemergent control of plant species. To be noted: Setaria, pre-emergence, 336 h; 0.25 lb/acre; read-out: percent preemergent control. It counts as in vivo, Setaria lutescens. The gist of the method: as §1
Another experiment has as its system yellow nutsedge. Description: Preemergent control of plant species. In kind it is in vivo, Cyperus esculentus. Particulars: Cyperus, pre-emergence, 336 h; 0.25 lb/acre; read-out: percent preemergent control. The procedure, abridged: as §1
Experiment [1] concerns nitrification of ammonium nitrogen. Description: Suppression of nitrification of ammonium nitrogen in soil. Particulars: 27° C. The procedure, abridged:
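Soil (20 g) moistened to its 1/3 bar tension value, mixed with test chemical and incubated sealed for two weeks at 27° C. Nitrate extracted with ammonium sulfate solution and measured by nitrate-specific ion electrode; value given as % NH4-N remaining.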

The next experiment has as its system sorghum. Put plainly: Preemergent control of plant species. In kind it is in vivo, Sorghum vulgare. Particulars: Sorghum, pre-emergence, 336 h; 0.25 lb/acre; read-out: percent preemergent control. The gist of the method:
as §1

With `Cc1cn2nc(S(=O)(=O)Nc3c(Cl)cccc3Cl)nc2nc1C` [Compound 205], the plant injury at 280.212 g/ha was 100% in the experiment with cotton; 100% in the experiment on rape; 90% in the experiment with soybean; 100% with sugar beet; 95% with corn; 50% in the experiment with rice. Moreover, the plant injury at 280.212 g/ha in the experiment on wheat was 0%. Moreover, the pest or weed control at 280.212 g/ha came to 100% with jimsonweed; 75% with annual morning glory; 100% in the experiment with velvetleaf; 50% in the experiment with barnyardgrass; 0% in the experiment on johnson grass; 50% in the experiment on wild oats. The figures for the pest or weed control at 280.212 g/ha in the experiment on yellow foxtail and with yellow nutsedge were 0% and 70%, respectively. For the same compound, the “% NH4-N Remaining After 2 Weeks Incubation” value in [1] (0.06 ppm) is on record as 32%; in experiment [1] (0.25 ppm), 38%; in experiment [1] (1 ppm), 76%; in experiment [1] (4 ppm), 81%.

As for `Cc1cc(C)n2nc(S(=O)(=O)Nc3c(F)cccc3C(=O)OC(C)(C)C)nc2n1` [Compound 56], the plant injury at 280.212 g/ha in the experiment on cotton came out at 0%; in the experiment with rape, 100%; with soybean, 0%; in the experiment on sugar beet, 100%; in the experiment on corn, 30%; in the experiment with rice, 0%. Also, the plant injury at 280.212 g/ha in the experiment on wheat worked out at 0%. Further, the pest or weed control at 280.212 g/ha was 0% in the experiment on jimsonweed; 90% with annual morning glory; 50% with velvetleaf; 0% in the experiment with barnyardgrass; 0% in the experiment with johnson grass; 0% in the experiment on wild oats. In addition, the pest or weed control at 280.212 g/ha in the experiment with yellow foxtail amounted to 20%; in the experiment with yellow nutsedge, 70%. For the same compound, the “% NH4-N Remaining After 2 Weeks Incubation” value was determined as 0% in experiment [1] (0.06 ppm), 37% in experiment [1] (0.25 ppm), 59% in experiment [1] (1 ppm) and 78% in experiment [1] (4 ppm).

For `Cc1ccc(Cl)c(NS(=O)(=O)c2nc3nc(C)c(Cl)c(C)n3n2)c1Cl` [Compound 199], the plant injury at 280.212 g/ha in the experiment on cotton is 20%; with rape it was 100%; in the experiment on soybean, 70%; with sugar beet, 90%; with corn it was 0%; with rice it was 0%. Also, the pest or weed control at 280.212 g/ha with jimsonweed stood at 0%; with annual morning glory it was 20%; with velvetleaf it was 70%; in the experiment with johnson grass, 0%; in the experiment on wild oats it was 0%; in the experiment on yellow foxtail, 0%. For the same compound, the pest or weed control at 280.212 g/ha with yellow nutsedge was found to be 0%. Besides, the “% NH4-N Remaining After 2 Weeks Incubation” value in experiment [1] (0.06 ppm) is 40%; in experiment [1] (0.25 ppm), 63%; in [1] (1 ppm), 78%; in experiment [1] (4 ppm) it was 88%.

In the case of `COc1nc2nc(S(=O)(=O)Nc3ccccc3C(F)(F)F)nn2cc1C` [Compound 217], the plant injury at 280.212 g/ha is 100% in the experiment on cotton; 100% in the experiment with rape; 100% in the experiment on soybean; 100% with sugar beet; 50% in the experiment on corn; 90% in the experiment on rice. Moreover, the plant injury at 280.212 g/ha with sorghum and in the experiment on wheat was 100% throughout. Further, the pest or weed control at 280.212 g/ha in the experiment on jimsonweed turned out to be 100%; in the experiment on annual morning glory, 100%; with velvetleaf it was 100%; with barnyardgrass, 90%; in the experiment with johnson grass, 100%; in the experiment with yellow foxtail, 50%. In addition, in the experiment with yellow nutsedge, the pest or weed control at 280.212 g/ha is 70%.

For `COc1nc2nc(S(=O)(=O)Nc3c(C)cccc3[N+](=O)[O-])nn2cc1C` [Compound 221], the plant injury at 280.212 g/ha in the experiment on cotton was 100%; in the experiment with rape, 100%; in the experiment on soybean, 100%; in the experiment with sugar beet, 100%; in the experiment with corn, 90%; in the experiment on rice, 100%. In addition, the plant injury at 280.212 g/ha in the experiment with sorghum came to 100%; in the experiment on wheat, 90%. Besides, the pest or weed control at 280.212 g/ha amounted to 100% in the experiment on jimsonweed; 100% in the experiment on annual morning glory; 100% with velvetleaf; 100% with barnyardgrass; 70% in the experiment with johnson grass; 100% in the experiment with yellow foxtail. For the same compound, the pest or weed control at 280.212 g/ha in the experiment with yellow nutsedge is 100%.

Regarding `Cc1cc(C(F)(F)F)n2nc(S(=O)(=O)Nc3c(F)ccc(C)c3F)nc2n1` [Compound 230], the plant injury at 280.212 g/ha with cotton is 100%; in the experiment on rape, 90%; with soybean, 20%; with sugar beet it was 100%; in the experiment on corn, 90%; in the experiment on rice, 50%. Moreover, the plant injury at 280.212 g/ha with sorghum turned out to be 100%; in the experiment with wheat, 30%. Moreover, the pest or weed control at 280.212 g/ha came to 100% with jimsonweed; 90% with annual morning glory; 90% with velvetleaf; 100% in the experiment on barnyardgrass; 90% in the experiment with johnson grass; 80% in the experiment with yellow foxtail. Further, the pest or weed control at 280.212 g/ha in the experiment on yellow nutsedge stood at 100%.

On to `Cc1ccn2nc(S(=O)(=O)N(C(=O)CC(C)(C)C)c3c(F)cccc3F)nc2n1` [Compound 278], for which the plant injury at 280.212 g/ha with cotton amounted to 100%; with rape it was 100%; with soybean, 70%; in the experiment with sugar beet, 100%; in the experiment with corn it was 60%; in the experiment with rice, 90%. Moreover, the plant injury at 280.212 g/ha in the experiment with sorghum came out at 100%; with wheat, 70%. Further, the pest or weed control at 280.212 g/ha in the experiment with jimsonweed was 100%; with annual morning glory, 100%; in the experiment on velvetleaf, 100%; with barnyardgrass, 100%; in the experiment with johnson grass, 90%; with yellow foxtail it was 100%. Further, the pest or weed control at 280.212 g/ha in the experiment on yellow nutsedge was 100%.

In the case of `COc1cccc(C(F)(F)F)c1NS(=O)(=O)c1nc2ncccn2n1` [Compound 141], the plant injury at 280.212 g/ha in the experiment with cotton, in the experiment on rape, in the experiment on soybean, in the experiment with sugar beet, in the experiment with corn and in the experiment with rice was 100% throughout. In addition, the figures for the plant injury at 280.212 g/ha in the experiment with sorghum and with wheat were 100% and 95%, respectively. For the same compound, the pest or weed control at 280.212 g/ha in the experiment on jimsonweed worked out at 100%; in the experiment with annual morning glory it was 100%; in the experiment with velvetleaf, 100%; in the experiment with barnyardgrass it was 95%; with johnson grass, 100%; in the experiment with yellow foxtail it was 100%. Also, the pest or weed control at 280.212 g/ha with yellow nutsedge amounted to 75%.

These data come from US4740233A, “Substituted 1,2,4-triazolo[1,5-a]-pyrimidine-2-sulfonamides and compositions and methods of controlling undesired vegetation and suppressing the nitrification of ammonium nitrogen in soil” (The Dow Chemical Company, priority 1986, dated 1988).
